Some test systems named below: A549 NSCLC; HL-60(TB) leukemia; NCI-H226 lung; NCI-H23 lung; RXF 393 renal; SF-268 CNS; SF-295 CNS; SF-539 CNS; UO-31 renal; NCI/ADR-RES ovarian.
What all share (assay): NCI tumour cell line growth inhibition, 48 h

The text below walks through data of PubChem BioAssay (NCI).

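Growth conditions: 96-well plates. Treatment: test compound, 48 hours, 5 concentrations. Analysis: linear interpolation between bracketing concentrations; unreached endpoints set to highest concentration. GI50 is the concentration that inhibits growth by half. Definition used: TGI = concentration required for complete inhibition of growth.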

Take `CO[C@H](C(=O)O[C@H]1C(=O)N2CCC3CCC1C32C)c1ccccc1` (some centres not stated): the TGI with A549 NSCLC, in the assay on HL-60(TB) leukemia, with NCI-H226 lung, in the assay on NCI-H23 lung, in the assay on RXF 393 renal and in the assay on SF-268 CNS was over 100 µM each time. Further, the TGI with SF-295 CNS, in the assay with SF-539 CNS and in the assay with UO-31 renal was over 100 µM each time.

As for `Cc1cc(NCCCNc2ccnc3cc(Cl)ccc23)nc(Nc2ccc(C(=O)N3CCCCC3)cc2)n1`, the GI50 was 3.56 µM in the assay with A549 NSCLC; 21.8 µM in the assay with NCI-H226 lung; 4.38 µM in the assay on NCI-H23 lung; 14.9 µM with NCI/ADR-RES ovarian; 1.8 µM in the assay on RXF 393 renal; 1.91 µM in the assay on SF-268 CNS. In addition, the GI50 was 2.02 µM with SF-295 CNS, 1.89 µM in the assay on SF-539 CNS and 2.16 µM with UO-31 renal. For the same compound, the TGI with A549 NSCLC came out at 10.4 µM; with NCI-H226 lung, 36.9 µM; in the assay with NCI-H23 lung, 18.6 µM; in the assay with NCI/ADR-RES ovarian, 35.9 µM; in the assay with RXF 393 renal, 3.67 µM; in the assay with SF-268 CNS, 5.11 µM. The TGI with SF-295 CNS stood at 3.89 µM; in the assay with SF-539 CNS it was 3.56 µM; in the assay with UO-31 renal, 5.87 µM.

In the case of `O=C(/C=C/c1ccc[nH]1)c1ccccc1`, the TGI with A549 NSCLC, in the assay with HL-60(TB) leukemia, in the assay with NCI-H226 lung, in the assay on NCI-H23 lung, in the assay with RXF 393 renal and with SF-268 CNS was over 100 µM throughout. The TGI in the assay with SF-295 CNS, in the assay with SF-539 CNS and in the assay with UO-31 renal was over 100 µM each time.

Take `Oc1ccccc1/C=N/Nc1nc2ccccc2s1`: the GI50 in the assay with A549 NSCLC was 6.52 µM; in the assay on NCI-H226 lung it was 10.7 µM; with NCI-H23 lung, 23.3 µM; in the assay with NCI/ADR-RES ovarian it was 6.1 µM; with RXF 393 renal it was 13.7 µM; in the assay with SF-268 CNS, 3.8 µM. Moreover, the GI50 is 5.3 µM in the assay on SF-295 CNS, 4.67 µM in the assay on SF-539 CNS and 4.86 µM in the assay with UO-31 renal. The TGI with A549 NSCLC was over 100 µM; with NCI-H226 lung, over 100 µM; in the assay on NCI-H23 lung, over 100 µM; with NCI/ADR-RES ovarian, over 100 µM; in the assay on RXF 393 renal, 39 µM; in the assay on SF-268 CNS it was over 100 µM. Moreover, the TGI in the assay on SF-295 CNS, in the assay on SF-539 CNS and in the assay with UO-31 renal was over 100 µM each time.

For `O=C1C2c3[nH]c4ccccc4c3C3CCC(c4ccccc4)CC3C2C(=O)N1c1ccccc1` (configuration not stated), the TGI in the assay with A549 NSCLC is over 100 µM; in the assay on HL-60(TB) leukemia, 71.1 µM; with NCI-H226 lung it was over 100 µM; in the assay with NCI-H23 lung, over 100 µM; with RXF 393 renal, over 100 µM; in the assay on SF-268 CNS, over 100 µM. Moreover, the TGI with SF-295 CNS, with SF-539 CNS and in the assay with UO-31 renal was over 100 µM throughout.

As for `Cc1cc(C)nc(NS(=O)(=O)c2ccc(Nc3nc4nc(NCc5ccccc5)nc(-c5ccc(O)cc5)c4c(=O)[nH]3)cc2)n1`, the GI50 in the assay with A549 NSCLC was 18.9 µM; in the assay on HL-60(TB) leukemia it was 8.41 µM; with NCI-H226 lung, 55.8 µM; in the assay with NCI-H23 lung, 79.7 µM; in the assay with NCI/ADR-RES ovarian, over 100 µM; in the assay on SF-268 CNS it was 18 µM. Moreover, the GI50 with SF-295 CNS was 16.7 µM; with SF-539 CNS it was over 100 µM; in the assay with UO-31 renal it was 6.39 µM. Also, the TGI in the assay on A549 NSCLC is over 100 µM; with HL-60(TB) leukemia it was 36.2 µM; in the assay with NCI-H226 lung it was over 100 µM; with NCI-H23 lung it was over 100 µM; in the assay on NCI/ADR-RES ovarian it was over 100 µM; in the assay with SF-268 CNS, over 100 µM. In addition, the TGI in the assay with SF-295 CNS was 95 µM; in the assay with SF-539 CNS, over 100 µM; in the assay with UO-31 renal, over 100 µM.

`NC(N)=NS(=O)(=O)c1ccc(NC(=O)c2cccn3c(=O)c4ccccc4nc23)cc1`: the TGI in the assay on A549 NSCLC was over 100 µM; in the assay with HL-60(TB) leukemia, 44.9 µM; in the assay with NCI-H226 lung, over 100 µM; with NCI-H23 lung, over 100 µM; in the assay with RXF 393 renal, over 100 µM; in the assay with SF-268 CNS it was over 100 µM. For the same compound, the TGI with SF-295 CNS, in the assay with SF-539 CNS and in the assay with UO-31 renal was over 100 µM throughout.

As for `CC12CCC(=O)N1c1cc([N+](=O)[O-])ccc1N2` (configuration not stated), the TGI with A549 NSCLC, in the assay on HL-60(TB) leukemia, in the assay on NCI-H226 lung, with NCI-H23 lung, in the assay on RXF 393 renal and with SF-268 CNS was over 100 µM throughout. The TGI in the assay on SF-295 CNS, in the assay on SF-539 CNS and with UO-31 renal was over 100 µM in each case.

For `N=C(N)c1ccc(CS(=O)(=O)F)cc1`, the GI50 with A549 NSCLC, with NCI-H226 lung, in the assay with NCI-H23 lung, in the assay on NCI/ADR-RES ovarian, in the assay on RXF 393 renal and in the assay with SF-268 CNS was over 100 µM each time. In addition, the GI50 with SF-295 CNS, in the assay on SF-539 CNS and with UO-31 renal was over 100 µM each time. Besides, the TGI in the assay on A549 NSCLC, in the assay on NCI-H226 lung, with NCI-H23 lung, in the assay with NCI/ADR-RES ovarian, in the assay on RXF 393 renal and in the assay with SF-268 CNS was over 100 µM each time. Besides, the TGI with SF-295 CNS, in the assay with SF-539 CNS and with UO-31 renal was over 100 µM throughout.

For the compound `COc1ccc(C(=O)OC2C(OC3C(O)COC(O[C@H]4C[C@H]5[C@@H]6CC=C7C[C@@H](O)CC[C@]7(C)[C@H]6CC[C@]5(C)[C@H]4[C@H](C)C(=O)CCC(C)C)C3OC(=O)C(C)C)OCC(O)C2O)cc1` (some centres not stated), the GI50 was 0.0224 µM with A549 NSCLC; 0.175 µM with NCI-H23 lung; 3.32 µM with NCI/ADR-RES ovarian; under 0.00275 µM in the assay on RXF 393 renal; 0.0195 µM in the assay on SF-268 CNS; under 0.00275 µM in the assay on SF-295 CNS. Moreover, the GI50 in the assay on SF-539 CNS is under 0.00275 µM; with UO-31 renal it was 0.0115 µM. For the same compound, the TGI in the assay on A549 NSCLC came to 4.58 µM; in the assay with NCI-H23 lung, 4.67 µM; in the assay on NCI/ADR-RES ovarian, 7.2 µM; in the assay on RXF 393 renal, 0.0158 µM; in the assay with SF-268 CNS, 3.33 µM; with SF-295 CNS, 0.00385 µM. The TGI is 0.0289 µM in the assay on SF-539 CNS and 0.067 µM in the assay with UO-31 renal.

`C=C(c1ccccc1)[C@@]1(O)CCCC[C@H]1NC(c1ccccc1)c1ccccc1`: the TGI with A549 NSCLC was found to be 26.2 µM; in the assay with HL-60(TB) leukemia, 5.95 µM; in the assay with NCI-H226 lung, 22.6 µM; in the assay on NCI-H23 lung, 28.7 µM; in the assay with RXF 393 renal, 22.7 µM; in the assay on SF-268 CNS it was 27.6 µM. The TGI in the assay on SF-295 CNS is 25.1 µM; in the assay on SF-539 CNS it was 32.7 µM; with UO-31 renal it was 27.6 µM.
